Measurements: PubChem BioAssay AID1918945 (Molecular Pharmacology Branch, DTP, NCI, 2023)

System: 883617-216-R-J1-PDC complex spheroid viability
Assay: Anticancer human tumor 883617-216-R-J1-PDC patient-derived bladder carcinoma cell line growth inhibition
Details: for IC50: curve of first compound; for viability, T/C: stronger effect = lower value
Procedure, shortened: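 Multicellular complex spheroids of tumor cells with human endothelial cells (HUVEC) and mesenchymal stem cells; the LSD1 inhibitor iadademstat was combined with standard-of-care or investigational agents. Top concentration at or near clinical Cmax, half-log dilutions; final DMSO ≤0.25%.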

[1] = second compound 0.1 µM, first compound 0.0316 µM
[2] = second compound 0.1 µM, first compound 0.1 µM
[3] = second compound 0.316 µM, first compound 0.0316 µM
[4] = second compound 0.316 µM, first compound 0.1 µM
[5] = second compound 1 µM, first compound 0.0316 µM
[6] = second compound 1 µM, first compound 0.1 µM
[7] = second compound 3.16 µM, first compound 0.0316 µM
[8] = second compound 3.16 µM, first compound 0.1 µM
[9] = second compound 10 µM, first compound 0.0316 µM
[10] = second compound 10 µM, first compound 0.1 µM
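Also: exposure lasted seven days after three days of spheroid growth.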
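For viability, T/C in this document: 100% = DMSO vehicle control luminescence.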

`CC[C@@]1(O)C(=O)OCc2c1cc1n(c2=O)Cc2cc3c(CN(C)C)c(O)ccc3nc2-1` + NC1CC1c1ccc(-c2cccc(O)c2)cc1 showed an IC50 (second compound 0.1 µM) of 2.14 nM, an IC50 (second compound 0.316 µM) of 2.24 nM and an IC50 (second compound 1 µM) of 2.07 nM. The IC50 (second compound 3.16 µM) was 1.42 nM, the IC50 (second compound 10 µM) was 0.862 nM and the viability, T/C (second compound 0.1 µM, first compound 0.000316 µM) was 97.4%. The viability, T/C (second compound 0.1 µM, first compound 0.001 µM) was 61.4%, the viability, T/C (second compound 0.1 µM, first compound 0.00316 µM) was 45.5% and the viability, T/C (second compound 0.1 µM, first compound 0.01 µM) was 30.5%. For the same compound, the viability, T/C [1] was 24.3%, the viability, T/C [2] was 19.4% and the viability, T/C (second compound 0.316 µM, first compound 0.000316 µM) was 94.8%. It also gave a viability, T/C (second compound 0.316 µM, first compound 0.001 µM) of 73.4%, a viability, T/C (second compound 0.316 µM, first compound 0.00316 µM) of 37.9% and a viability, T/C (second compound 0.316 µM, first compound 0.01 µM) of 30.4%. For the same compound, the viability, T/C [3] was 22.9%, the viability, T/C [4] was 19.1% and the viability, T/C (second compound 1 µM, first compound 0.000316 µM) was 93.7%. The viability, T/C (second compound 1 µM, first compound 0.001 µM) was 71.5%, the viability, T/C (second compound 1 µM, first compound 0.00316 µM) was 36.9% and the viability, T/C (second compound 1 µM, first compound 0.01 µM) was 27.2%. For the same compound, the viability, T/C [5] was 24.6%, the viability, T/C [6] was 21.2% and the viability, T/C (second compound 3.16 µM, first compound 0.000316 µM) was 93.8%. For the same compound, the viability, T/C (second compound 3.16 µM, first compound 0.001 µM) was 57.6%, the viability, T/C (second compound 3.16 µM, first compound 0.00316 µM) was 32.2% and the viability, T/C (second compound 3.16 µM, first compound 0.01 µM) was 27.9%. The viability, T/C [7] was 24.2%, the viability, T/C [8] was 17.9% and the viability, T/C (second compound 10 µM, first compound 0.000316 µM) was 76.1%. The viability, T/C (second compound 10 µM, first compound 0.001 µM) was 42.2%, the viability, T/C (second compound 10 µM, first compound 0.00316 µM) was 35.3% and the viability, T/C (second compound 10 µM, first compound 0.01 µM) was 26.6%. For the same compound, the viability, T/C [9] was 24.2% and the viability, T/C [10] was 16.9%.
With `CC1(C)CCC(CN2CCN(c3ccc(C(=O)NS(=O)(=O)c4ccc(NCC5CCOCC5)c([N+](=O)[O-])c4)c(Oc4cnc5[nH]ccc5c4)c3)CC2)=C(c2ccc(Cl)cc2)C1` + NC1CCC(NC2CC2c2ccccc2)CC1 the IC50 (second compound 0.1 µM) was 7330 nM, the IC50 (second compound 0.316 µM) was 7540 nM and the IC50 (second compound 1 µM) was 7340 nM. It also gave an IC50 (second compound 3.16 µM) of 7340 nM, an IC50 (second compound 10 µM) of 7100 nM and a viability, T/C [1] of 108%. The viability, T/C [2] was 114%, the viability, T/C (second compound 0.1 µM, first compound 0.316 µM) was 109% and the viability, T/C (second compound 0.1 µM, first compound 1 µM) was 104%. For the same compound, the viability, T/C (second compound 0.1 µM, first compound 3.16 µM) was 109%, the viability, T/C (second compound 0.1 µM, first compound 10 µM) was 28.3% and the viability, T/C [3] was 111%. The viability, T/C [4] was 106%, the viability, T/C (second compound 0.316 µM, first compound 0.316 µM) was 122% and the viability, T/C (second compound 0.316 µM, first compound 1 µM) was 109%. The viability, T/C (second compound 0.316 µM, first compound 3.16 µM) was 125%, the viability, T/C (second compound 0.316 µM, first compound 10 µM) was 28.9% and the viability, T/C [5] was 105%. For the same compound, the viability, T/C [6] was 110%, the viability, T/C (second compound 1 µM, first compound 0.316 µM) was 118% and the viability, T/C (second compound 1 µM, first compound 1 µM) was 110%. For the same compound, the viability, T/C (second compound 1 µM, first compound 3.16 µM) was 113%, the viability, T/C (second compound 1 µM, first compound 10 µM) was 27.4% and the viability, T/C [7] was 104%. For the same compound, the viability, T/C [8] was 114%, the viability, T/C (second compound 3.16 µM, first compound 0.316 µM) was 110% and the viability, T/C (second compound 3.16 µM, first compound 1 µM) was 114%. For the same compound, the viability, T/C (second compound 3.16 µM, first compound 3.16 µM) was 120%, the viability, T/C (second compound 3.16 µM, first compound 10 µM) was 27% and the viability, T/C [9] was 107%. For the same compound, the viability, T/C [10] was 102%, the viability, T/C (second compound 10 µM, first compound 0.316 µM) was 108% and the viability, T/C (second compound 10 µM, first compound 1 µM) was 110%. The viability, T/C (second compound 10 µM, first compound 3.16 µM) was 118% and the viability, T/C (second compound 10 µM, first compound 10 µM) was 24.8%.
With `Nc1ncn(C2CC(O)C(CO)S2)c(=O)n1` (stereo not given) + NC1CCC(NC2CC2c2ccccc2)CC1 the IC50 (second compound 0.1 µM) was over 300 nM, the IC50 (second compound 0.316 µM) was over 300 nM and the IC50 (second compound 1 µM) was 291 nM. For the same compound, the IC50 (second compound 3.16 µM) was over 300 nM, the IC50 (second compound 10 µM) was over 300 nM and the viability, T/C (second compound 0.1 µM, first compound 0.000949 µM) was 106%. For the same compound, the viability, T/C (second compound 0.1 µM, first compound 0.003 µM) was 111%, the viability, T/C (second compound 0.1 µM, first compound 0.00949 µM) was 101% and the viability, T/C (second compound 0.1 µM, first compound 0.03 µM) was 72.9%. For the same compound, the viability, T/C (second compound 0.1 µM, first compound 0.0949 µM) was 59.1%, the viability, T/C (second compound 0.1 µM, first compound 0.3 µM) was 48.3% and the viability, T/C (second compound 0.316 µM, first compound 0.000949 µM) was 114%. It also gave a viability, T/C (second compound 0.316 µM, first compound 0.003 µM) of 110%, a viability, T/C (second compound 0.316 µM, first compound 0.00949 µM) of 102% and a viability, T/C (second compound 0.316 µM, first compound 0.03 µM) of 68.3%. For the same compound, the viability, T/C (second compound 0.316 µM, first compound 0.0949 µM) was 60.6%, the viability, T/C (second compound 0.316 µM, first compound 0.3 µM) was 52.8% and the viability, T/C (second compound 1 µM, first compound 0.000949 µM) was 113%. For the same compound, the viability, T/C (second compound 1 µM, first compound 0.003 µM) was 106%, the viability, T/C (second compound 1 µM, first compound 0.00949 µM) was 97.1% and the viability, T/C (second compound 1 µM, first compound 0.03 µM) was 75.4%. It also gave a viability, T/C (second compound 1 µM, first compound 0.0949 µM) of 57.5%, a viability, T/C (second compound 1 µM, first compound 0.3 µM) of 50.1% and a viability, T/C (second compound 3.16 µM, first compound 0.000949 µM) of 101%. For the same compound, the viability, T/C (second compound 3.16 µM, first compound 0.003 µM) was 106%, the viability, T/C (second compound 3.16 µM, first compound 0.00949 µM) was 86.1% and the viability, T/C (second compound 3.16 µM, first compound 0.03 µM) was 72.8%. For the same compound, the viability, T/C (second compound 3.16 µM, first compound 0.0949 µM) was 61.4%, the viability, T/C (second compound 3.16 µM, first compound 0.3 µM) was 53.7% and the viability, T/C (second compound 10 µM, first compound 0.000949 µM) was 110%. For the same compound, the viability, T/C (second compound 10 µM, first compound 0.003 µM) was 114%, the viability, T/C (second compound 10 µM, first compound 0.00949 µM) was 91.3% and the viability, T/C (second compound 10 µM, first compound 0.03 µM) was 74.8%. For the same compound, the viability, T/C (second compound 10 µM, first compound 0.0949 µM) was 67.7% and the viability, T/C (second compound 10 µM, first compound 0.3 µM) was 55.6%.
